“Also recorded” adds a separate entry of the source.
Key:
[1] = molecular target: T1, PYR1 (Arabidopsis thaliana, UniProt O49686); assay: ABA/receptor-mediated PP2C (ΔN-HAB1) phosphatase inhibition assay, PYR1; type: biochemical; details: 100 nM PYR1, 25 nM ΔN-HAB1, 50 μM test compound, presence or absence of 5 μM ABA
T1 construct: made in house
T1 sequence (O49686 1-191): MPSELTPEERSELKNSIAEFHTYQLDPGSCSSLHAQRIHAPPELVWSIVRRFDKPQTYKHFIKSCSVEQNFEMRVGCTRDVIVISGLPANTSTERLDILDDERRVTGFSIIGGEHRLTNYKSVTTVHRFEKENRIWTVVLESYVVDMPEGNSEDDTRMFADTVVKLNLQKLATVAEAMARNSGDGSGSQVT
Experimental: (§1) Prior to synthesizing a library of OP-4-triazoles we conducted model click reactions to establish the feasibility and efficiency of using unpurified reaction mixtures directly in ABA receptor activation assays. These reactions were performed using OPZ and 4-ethynyltoluene as follows: we mixed OPZ (4 uL, 25 mM), alkyne (10 uL, 10 mM), sodium ascorbate (2 uL, 20 mM), BTTA (2 uL, 20 mM) and copper(II) sulphate (2 uL, 10 mM) in a 200 μL PCR tube and incubated the reaction at 37° C. for 48 hr. The reaction was monitored using TLC. In parallel, we ran a scaled-up synthesis of the triazole using similar ratios of the reagents and conditions, followed by precipitation of the product by the addition of 2N HCl and subsequent filtration to yield triazole T1 from 4-ethynyltoluene as white powder in quantitative yields. The purified triazole and unpurified click reaction were both tested in receptor-mediated phosphatase inhibition assays. […] Reactions were mixed and equilibrated for 20 minutes, substrate (4-methylumbelliferyl phosphate, 1 mM final) was added, and fluorescence data were collected (λ, exc=360 nm, λ emm=460 nm) using a Tecan Infinite F200 Pro fluorimeter. PP2C activity was calculated relative to solvent-only control wells (i.e. receptors and PP2C in assay buffer, but no test compound); compounds were tested in duplicate. […]

[2] = Light sensitivity of the isolated product; type: physicochemical; details: isolated solid, stored at −20° C.
Experimental: 142-(4-Azido-3,5-dicyclopropylphenyl)acetylaminolcyclohexanecarboxylic acid (2b; OPZ) To a solution of 2a (0.4 g, 1.01 mmoles, 1 equiv) in methanol/water 20 mL (1:1 v/v) was added lithium hydroxide (0.48 g, 20.2 mmoles, 20 equiv) and stirred at RT for 24 hr. After completion of the reaction (TLC), 2N HCl was added to the reaction mixture to precipitate the product as a white solid in near quantitative yields.

[3] = test system: Arabidopsis (Col) seeds; assay: Arabidopsis seed germination/greening assay in presence of ABA; type: in vivo; details: for blocking of ABA inhibition of cotyledon greening: 30 μM pure compound
Experimental: To evaluate and prioritize the 204 hits obtained, we examined their effects on ABA-mediated inhibition of Arabidopsis seed germination and seedling growth. Arabidopsis seeds germinate and produce photosynthetically active cotyledons within 4-days post imbibition under illumination. Low concentrations of ABA (i.e. 1 μM) inhibit both germination and seedling growth, which is easily quantified by image analysis of green pixel counts. This provides a simple test for ABA antagonists, as they will block the inhibitory effects of ABA on greening. We used this assay to characterize the 204 hit molecules. Greening experiments were performed in 96-well polystyrene petri plates using surface sterilized Arabidopsis (Col) seeds plated on to 0.7% agar medium containing ½-X MS salts, 0.5% sucrose, 1 μM ABA, and one of the 204 click reactions products (˜10 μM). After 4 days of stratification (4° C.), the plates were transferred to a growth chamber under continuous illumination and photographed 4 days later. Each experiment included ABA (1 μM ABA, no antagonist) and mock (no ABA) controls.
The OP-4-triazoles 48E9T, 49C10T, 49 Å2T, 1H6T and 6E4T were tested in Arabidopsis greening assays at 30 μM in presence or absence of 1 μM ABA using conditions described in Example 7. […] (FIG. 7).
Purified triazoles were evaluated for their ability to block the effects of exogenous ABA in inhibiting seed germination/greening, performed as described in Example 7 using the purified OP-4-peptidotriazole hits, PanMe, AA1, and OPZ at concentrations ranging from 200 nM to 50000 nM in triplicate in presence of 1 μM ABA. Seed germination was scored at the lowest concentration tested, while greening data (normalized to mock control) was fitted to log(inhibitor) vs. response-(variable slope) model using non-linear regression to infer the EC50S, using GraphPad Prism 6.0.

[4] = test system: Arabidopsis seeds; assay: Thermoinhibition of seed germination assay; type: in vivo; details: 0.2 μM to 50 μM, 37° C. in dark for 72 hrs
Text: Adverse environmental conditions during germination can affect dormancy in several species. For example, high temperatures during seed imbibition can prevent seed germination and induce a form of secondary seed dormancy in a process called thermoinhibition. Although thermoinhibtion is complex, elevated ABA levels induced by heat play a critical role, as evidenced by both the identification of ABA-deficient varieties of lettuce with reduced sensitivity to thermoinhibition and pharmacological experiments using fluridone, which disrupts ABA biosynthesis and thermoinhibition in many species. Chemicals that can counter this effect of heat stress could find use as seed treatments to ensure consistent germination under adverse conditions. […] 96 well polystyrene petri plates with surface sterilized Arabidopsis seeds plated on 0.7% agar medium containing ½-x MS salts, 0.5% sucrose, and doses spanning from 0.2 μM to 50 μM of different OP-4-peptidotriazoles, PanMe, AA1, OPZ and fluridone as a positive control. After 4 d of stratification at 4° C., the plates were transferred to an incubation chamber at 37° C. in dark for 72 hrs. After heat treatment, the plates were placed in dark in an incubation chamber at RT for 48 hrs and photographed.

[5] = test system: ABA receptors; details: cited from earlier work
[6] = test system: MAPKKK18 gene expression; assay: MAPKKK18::Luc luciferase reporter assay of ABA induced gene expression; type: in vivo, Arabidopsis thaliana; details: 25 μM test chemical, 25 μM ABA, 6 hr
Experimental: ASV1E9T, PanMe, AA1 and OPZ were evaluated for their ability to block effects of exogenous ABA in inducing MAPKKK18 gene expression in Arabidopsis seedlings. Arabidopsis seeds (MAPKKKI8::Luc reporter line) were surface sterilized grown and plant growth liquid medium (½ Murashige and Skoog medium and 0.5% Sucrose) under 16 hour light and 8 hour dark conditions. 10 day old seedlings were transferred to new plant growth liquid medium with test chemical at 25 μM in presence of equimolar concentration of ABA and 100 μM luciferin. Luciferase assay image were taken by XYZ camera after 6 hr of treatments. The average luminescent intensity was quantified using ImageJ. Average intensity was calculated for quadruplicates and the error bars on graphs represent the standard error of mean. […] (FIG. 14)

[7] = test system: Arabidopsis seedlings; assay: Primary root growth assay in presence of ABA; type: in vivo; details: 5 and 10 μM, 10 μM ABA, 72 hrs
Experimental: Purified triazoles were evaluated for their ability to block effects of exogenous ABA in inhibiting primary root growth in Arabidopsis seedlings. Arabidopsis seeds were surface sterilized and plated on 0.7% agar medium containing 1⁄2-x MS salts, 0.5% sucrose. After 4 d of stratification at 4° C., transferred to dark chamber for 48 hrs. 5-6 seedlings at this stage were transferred to chemical plates containing purified triazole hits, PanMe, AA1 and OPZ at 5 and 10 μM in triplicate in presence of 10 μM ABA. Additional ABA controls (10 μM ABA, no antagonist) were also performed to assess effects of ABA on growth in absence of antagonist and transferred to dark chamber at RT for 72 hrs. Root lengths were measured and normalized to mock controls (FIG. 13).

[8] = test system: ABA receptors (PYR1, PYL4, PYL8); assay: ABA receptor antagonism in vitro, statements not resolved by receptor (PYR1, PYL4, PYL8 panel); type: biochemical, Arabidopsis
Experimental: as §1

## [N-]=[N+]=Nc1c(C2CC2)cc(CC(=O)NC2CCC(C(=O)O)CC2)cc1C1CC1 (stereo not shown) [OPZ, 142-(4-Azido-3,5-dicyclopropylphenyl)acetylaminolcyclohexanecarboxylic acid]
[1]
  effect on PYR1 in PP2C activity assay: weak partial PYR1 agonist/antagonist
[2]
  light sensitivity: extremely light sensitive

## O=C(Cc1cc(C2CC2)c(-n2cc(CNC(=O)c3coc(Br)c3)nn2)c(C2CC2)c1)NC1CCC(C(=O)O)CC1 (stereo not shown) [49 Å2T]
[3]; 1 μM ABA
  blocking of ABA inhibition of cotyledon greening: highly effective in blocking the effects of ABA
[4]
  block of thermoinhibition of germination: block thermoinhibition

## fluridone
[4]
  block of thermoinhibition of germination: blocks thermoinhibition at all concentrations tested

## CCCCCCSC1=C(C)[C@](O)(/C=C/C(C)=C\C(=O)O)C(C)(C)CC1=O [AS6]
[5]
  in vitro activity (literature antagonists): modest in vitro activity

## Cc1cccc(C(=O)NCc2cn(-c3c(C4CC4)cc(CC(=O)NC4(C(=O)O)CCCCC4)cc3C3CC3)nn2)n1 [49C10T]
[3]; 1 μM ABA
  blocking of ABA inhibition of cotyledon greening: highly effective in blocking the effects of ABA

## CC1=C[C@@H](OCC#Cc2ccc(C)cc2)CC(C)(C)[C@@]1(O)/C=C/C(C)=C\C(=O)O [PanMe]
[6]
  block of ABA induced MAPKKK18::Luc gene expression: less effective
[3]; 200 nM to 50000 nM dose range
  phytotoxicity: phytotoxicity; also recorded: phytotoxic at higher concentrations
[3]; 200 nM to 50000 nM, 1 μM ABA, triplicate
  blocking of ABA inhibition of seed germination/greening: blocks ABA's effects at lower concentrations
[5]
  in vitro activity (literature antagonists): modest in vitro activity
[4]
  block of thermoinhibition of germination: blocks thermoinhibition but its effects decreased at higher concentrations
[7]
  block of ABA inhibition of primary root growth: weak effects

## COc1ccc(-c2nc3ccccc3n2Cc2cn(-c3c(C4CC4)cc(CC(=O)NC4(C(=O)O)CCCCC4)cc3C3CC3)nn2)cc1 [6E4T]
[3]; 1 μM ABA
  blocking of ABA inhibition of cotyledon greening: only weakly effective
[8]
  receptor selectivity (pan vs selective antagonist): PYR1-selective antagonist

## O=C(Cc1cc(C2CC2)c(-n2cc(CNC(=O)c3cnc4ccccc4n3)nn2)c(C2CC2)c1)NC1(C(=O)O)CCCCC1 [48E9T]
[3]; 1 μM ABA
  blocking of ABA inhibition of cotyledon greening: highly effective in blocking the effects of ABA

## O=C(Cc1cc(C2CC2)c(-n2cc(Cn3c(=O)oc4cc(Cl)ccc43)nn2)c(C2CC2)c1)NC1(C(=O)O)CCCCC1 [1H6T]
[3]; 30 μM
  phytotoxicity: possible phytotoxicity
[3]; 1 μM ABA
  blocking of ABA inhibition of cotyledon greening: weakly active
[8]
  receptor selectivity (pan vs selective antagonist): pan antagonist
